# Test results as given in patent US20180346505A1, “MONONUCLEOTIDES HAVING A BIOREVERSIBLE DISULFIDE GROUP” (priority 2014, published 2018).
# How the values were obtained:
# GT1b (Con1) HCV replicon = assay: HCV replicon assay, wild type GT1b (Con1), luciferase based, stable format; type: cell-based, hepatitis C virus; conditions: Huh-7 cells
# Procedure: (§1) The antiviral activity of the test compounds was assessed in the wild type GT1b (Con1), GT1a (H77), and GT1b/2a, GT1b/3a, GT1b/4a and GT1b/5a NS5B chimeric replicons, as well as the NS5B mutant replicons listed in Table 2a and 2b.
# (§2) All the replicon assays were luciferase based in Huh-7 cells, either in stable format (GT1b and GT1a) or by transient transfection by electroporation (chimeric and mutant replicons). For a standard HCV replicon assay, stable or transiently transfected Huh-7 cells were seeded in 96-well plates (5,000 cells/well), cultured in DMEM containing 10% FBS, and incubated at 37° C., 5% CO2. On the following day, test compounds were diluted with assay media and added to the appropriate wells (final DMSO concentration in the cell culture medium was 0.5%). Assay reference positive control was included in each run to ensure assay performance. Cells were incubated at 37° C., 5% CO2 for 72 hours, at which time the cells were still sub-confluent. The antiviral activity was determined by measuring replicon reporter firefly luciferase activity using Bright Glo kit in accordance with the protocol provided by the supplier (Promega). The toxicity of the test compounds was assessed by CytoTox-1 cell proliferation assay (Promega). The half maximal effective concentration (EC50) and the half maximal toxic concentration (TC50) values were calculated using the GraphPad Prism software.
# [1] = tested on: GT1b L159F NS5B mutant replicon; assay: HCV NS5B mutant replicon assay, GT1b L159F; type: cell-based; conditions: Hepatitis C virus, Huh-7, 72 h, read-out: GT1b L159F EC50
# Procedure: as §1
# (§3) The HCV replicon mutants were generated by site-directed mutagenesis (SDM). The SDM was performed by PCR and the PCR fragments were inserted into the backbone replicon construct. The inserted PCR fragments and the mutants were confirmed by sequencing.
# as §2
# [2] = tested on: GT1b/5a NS5B chimeric replicon; assay: HCV replicon assay, GT1b/5a NS5B chimeric replicon, transient transfection; type: cell-based, hepatitis C virus; conditions: Hepatitis C virus, Huh-7, 72 h, read-out: GT5a EC50, GT1b/5a NS5B chimeric replicon, Huh-7 cells, luciferase, 72 hours
# Procedure: as §1
# (§4) To generate HCV NS5B chimeric replicons, the GT1 b replicon was used as a backbone with the NS5B gene replaced with the NS5B gene of GT2a, GT3a, GT4a and GT5a derived from clinical isolates. These NS5B genes were cloned into the GT1b backbone and were confirmed by sequencing.
# as §2
# [3] = Nucleoside phosphoester stability in simulated intestinal fluid; type: in vitro ADME
# Procedure: Test compounds at 2 μM were incubated at 37° C. with simulated intestinal fluid (SIF), which contains 0.68% (w/v) monobasic potassium phosphate and 1% (w/v) pancreatin in ultra-pure water (pH 6.8). Duplicate samples were used. Samples were removed at 0, 15, 30, 60, 120, 360 and 1440 min, immediately mixed with cold acetonitrile containing an internal standard (IS), and stored at −80° C. before analysis. Chlorambucil was used as a positive control. Samples were analyzed by a LC/MS/MS method, and disappearance of test compound was assessed by comparison of peak area ratios of analyte/IS and reported as % test compound remaining at each time point.
# [4] = tested on: GT1b S282T NS5B mutant replicon; assay: HCV NS5B mutant replicon assay, GT1b S282T; type: cell-based; conditions: Hepatitis C virus, Huh-7, 72 h, read-out: GT1b S282T EC50
# Procedure: as §1, §3, §2
# [5] = tested on: GT1b S96T NS5B mutant replicon; assay: HCV NS5B mutant replicon assay, GT1b S96T; type: cell-based; conditions: Hepatitis C virus, Huh-7, 72 h, read-out: GT1b S96T EC50
# Procedure: as §1, §3, §2
# [6] = tested on: GT3a S282T NS5B mutant replicon; assay: HCV NS5B mutant replicon assay, GT3a S282T; type: cell-based; conditions: Hepatitis C virus, Huh-7, 72 h, read-out: GT3a S282T EC50
# Procedure: as §1, §4, §3, §2
# [7] = tested on: GT1b/4a NS5B chimeric replicon; assay: HCV replicon assay, GT1b/4a NS5B chimeric replicon, transient transfection; type: cell-based, hepatitis C virus; conditions: Hepatitis C virus, Huh-7, 72 h, read-out: GT4a EC50, GT1b/4a NS5B chimeric replicon, Huh-7 cells, luciferase, 72 hours
# Procedure: as §1, §4, §2
# [8] = tested on: GT1b C316N NS5B mutant replicon; assay: HCV NS5B mutant replicon assay, GT1b C316N; type: cell-based; conditions: Hepatitis C virus, Huh-7, 72 h, read-out: GT1b C316N EC50
# Procedure: as §1, §3, §2
# [9] = tested on: GT1b/2a NS5B chimeric replicon; assay: HCV replicon assay, GT1b/2a NS5B chimeric replicon, transient transfection; type: cell-based, hepatitis C virus; conditions: Hepatitis C virus, Huh-7, 72 h, read-out: GT2a EC50, GT1b/2a NS5B chimeric replicon, Huh-7 cells, luciferase, 72 hours
# Procedure: as §1, §4, §2
# [10] = Nucleoside phosphoester stability in fetal bovine serum; type: in vitro ADME; conditions: 100 μM, 37° C.
# Procedure: In another test, mononucleotide stock solutions were prepared at 10 mM in DMSO, and 10 μL of each stock solution was added to 1 mL of fetal bovine serum (FBS) to provide 100 μM of final compound concentration. These samples incubated for 24 h in a 37° C. water bath and 100 μL aliquots removed at t=0, 1, 2, 4, 6 and 24 hours. Individual samples were precipitated with 200 μL cold acetonitrile, the debris was pelleted at 14K RPM for 30 min at 4° C., and the supernatant was removed and subjected to LCMS analysis as described below.
# Mobile phase A: 95:5 H2O:acetonitrile, 10 mM ammonium acetate, 0.01% formic acid
# Mobile phase B: 95:5 acetonitrile:H2O, 10 mM ammonium acetate, 0.01% formic acid
# Extracted ion chromatograms generated using M+1H and ammonium adduct for each compound.
# [11] = tested on: GT3a L159F NS5B mutant replicon; assay: HCV NS5B mutant replicon assay, GT3a L159F; type: cell-based; conditions: Hepatitis C virus, Huh-7, 72 h, read-out: GT3a L159F EC50
# Procedure: as §1, §4, §3, §2
# [12] = tested on: GT3a V321A NS5B mutant replicon; assay: HCV NS5B mutant replicon assay, GT3a V321A; type: cell-based; conditions: Hepatitis C virus, Huh-7, 72 h, read-out: GT3a V321A EC50
# Procedure: as §1, §4, §3, §2
# [13] = tested on: GT1b/3a NS5B chimeric replicon; assay: HCV replicon assay, GT1b/3a NS5B chimeric replicon, transient transfection; type: cell-based, hepatitis C virus; conditions: Hepatitis C virus, Huh-7, 72 h, read-out: GT3a EC50, GT1b/3a NS5B chimeric replicon, Huh-7 cells, luciferase, 72 hours
# Procedure: as §1, §4, §2
# [14] = Hepatitis C virus, GT1B, Huh-7, 72 h
SMILES,EC50 (GT1b (Con1) HCV replicon; [14]),EC50 [1],EC50 [2],EC50 [4],EC50 [5],EC50 [6],EC50 [7],EC50 [8],EC50 [9],% t = 0 ([10]; 0 hours),% t = 0 ([10]; 1 hour),% t = 0 ([10]; 2 hours),% t = 0 ([10]; 4 hours),% t = 0 ([10]; 6 hours),% t = 0 ([10]; 24 hours),EC50 [11],EC50 [12],EC50 [13],also measured
"CC(C)(C)SSc1ccccc1CCOP1(=O)OC[C@H]2O[C@@H](n3ccc(=O)[nH]c3=O)[C@](C)(F)[C@@H]2O1 (single isomer, unassigned) [Compound 7A]",9 nM,15 to 17 nM,8 nM,65 nM,8 nM,44 nM,5 nM,9 nM,3 nM,100.0%,101.0%,101.0%,100.9%,92.5%,87.9%,15 nM,12 nM,8 nM,"EC50 (GT1b (Con1) HCV replicon; 72 hours): 5 to 8 nM; % Remaining ([3]; simulated gi fluid, 0 h, 2 μM, pH 6.8): 100.00%; % Remaining ([3]; simulated gi fluid, 0.25 h, 2 μM, pH 6.8): 102.65%; % Remaining ([3]; simulated gi fluid, 0.5 h, 2 μM, pH 6.8): 104.34%; % Remaining ([3]; simulated gi fluid, 1 h, 2 μM, pH 6.8): 111.04%; % Remaining ([3]; simulated gi fluid, 2 h, 2 μM, pH 6.8): 101.89%; % Remaining ([3]; simulated gi fluid, 6 h, 2 μM, pH 6.8): 121.95%; % Remaining ([3]; simulated gi fluid, 24 h, 2 μM, pH 6.8): 51.70%"
"CC(C)OC(=O)[C@H](C)N[P@](=O)(OC[C@H]1O[C@@H](n2ccc(=O)[nH]c2=O)[C@](C)(F)[C@@H]1O)Oc1ccccc1 [sofosbuvir, reference compound]",36 to 66 nM,63 nM,65 nM,446 to 554 nM,62 to 314 nM,84 to 572 nM,54 nM,25 nM,36 nM,100.0%,96.2%,96.5%,89.0%,91.6%,102.2%,134 nM,166 nM,90 to 95 nM,"% Remaining ([3]; simulated intestinal fluid pH 6.8, 2 μM, 37° C., 0 min): 100.00%; % Remaining ([3]; simulated intestinal fluid pH 6.8, 2 μM, 37° C., 15 min): 5.57%; % Remaining ([3]; simulated intestinal fluid pH 6.8, 2 μM, 37° C., 30 min): 0.00%; % Remaining ([3]; simulated intestinal fluid pH 6.8, 2 μM, 37° C., 60 min): 0.00%; % Remaining ([3]; simulated intestinal fluid pH 6.8, 2 μM, 37° C., 120 min): 0.00%; % Remaining ([3]; simulated intestinal fluid pH 6.8, 2 μM, 37° C., 360 min): 0.00%; % Remaining ([3]; simulated intestinal fluid pH 6.8, 2 μM, 37° C., 1440 min): 0.00%"
